Source: US10912740B2, “Treating hepatitis C with cannabidiol” (Vilotos Pharmaceuticals, Inc., priority 2017, dated 2021)
“Also recorded” adds a separate entry of the source.

How the values were obtained:
[1] = Cytotoxicity (CytoTox-1 cell number) in the HCVcc assay; type: cell-based; conditions: human, Huh7.5 cells infected with HCVcc; HCVcc assay, Huh7.5 cells; CBD at 10 μM
Procedure: (§1) Huh7.5 cells are grown in Dulbecco's modified essential media (DMEM), 10% fetal bovine serum (FBS), 1% penicillin-streptomycin (pen-strep), 1% Non-essential amino acids (NEAA) in a 5% CO2 incubator at 37° C. Huh7.5 cells were seeded at 1×10^4 cells per well into 96-well plates according to Southern Research Institute standard format. The test article was serially diluted with DMEM plus 5% FBS. The diluted compound in the amount of 50 μl was mixed with equal volume of cell culture-derived HCV (HCVcc), then applied to appropriate wells in the plate. Human interferon alpha-2b (rIFNα-2b) was included as a positive control compound. After 72 hr incubation at 37° C., the cells were lysed for measurement of luciferase activity using Renilla Luciferase Assay System (Promega) according to manufacturer's instruction. The number of cells in each well were determined by CytoTox-1 reagent (Promega). […] HCV replicon levels are assessed as replicon derived Luc activity. The toxic concentration of drug that reduced cell numbers was assessed by the CytoTox-1 cell proliferation assay (Promega), a fluorometric assay of cell numbers (and cytotoxicity). […]

[2] = test system: Huh7.5 cells; assay: as above; type: cell-based; conditions: cells used to culture HCV
Procedure: as §1

[3] = test system: HBV; assay: Anti-hepatitis B assay: extracellular HBV DNA by TaqMan PCR from HepG2 2.2.15 cells; type: cell-based, Hepatitis B virus (wild-type ayw1 strain); conditions: for Percentage virus inhibition: HBV, HepG2 2.2.15 cells, six days
Text: (§2) The pure cannabis cannabinoid CBD of FIG. 2 was subjected to a modified anti-hepatitis B assay. [Korba B E, Gerin J L, Use Of A Standardized Cell Culture Assay To Assess Activities Of Nucleoside Analogs Against Hepatitis B Virus Replication, Antiviral Res, 19:55-70 (1992); Korba B E, Milman G., A Cell Culture Assay For Compounds Which Inhibit Hepatitis B Virus Replication, Antiviral Res 1991; 15:217-28]. The modifications allowed use in real time quantitative polymerase chain reaction (PCR) (TaqMan) to measure extracellular HBV DNA copy number associated with virions released from HepG2 2.2.15 cells. The HepG2 2.2.15 cell line is a stable cell line producing high levels of the wild-type ayw1 strain of HBV. Antiviral compounds blocking any later step of viral replication such as transcription, translation, pregenomeencapsidation, reverse transcription, particle assembly, and release can be identified and characterized using this cell line. In brief, HepG2 2.2.15 cells are plated in 96-well microtiter plates. Only the interior wells were utilized to reduce “edge effects” observed during cell culture; the exterior wells were filled with complete medium to help minimize sample evaporation. After incubation with 5% CO2 atmosphere at 37° C. for 16-24 h, the confluent monolayer of HepG2 2.2.15 cells was washed and the medium was replaced with complete medium containing test compounds at a single concentration of 10 μM. Three days later, the culture medium was replaced with fresh medium and test compounds at a single concentration of 10 μM. Six days following the initial administration of the test compounds, the cell culture supernatant was collected, treated with pronase and DNAse, and then used in a real-time quantitative TaqMan PCR assay. Antiviral activity was determined by calculating the reduction in HBV DNA levels compared to untreated virus control samples. Compound cytotoxicity was determined using MTS (CellTiter 96 Reagent, Promega) to measure cell viability as described above.

[4] = Cytotoxicity (CC50) in the HCV dose-response assay; type: cell-based; conditions: human, Huh7.5 cells
Procedure: as §1

[5] = Compound cytotoxicity (MTS cell viability) in the anti-hepatitis B assay; type: cell-based; conditions: human, HepG2 2.2.15 cells (stable HBV-producing line), HBV assay, HepG2 2.2.15 cells
Text: as §2

[6] = test system: HepG2 2.2.15 cells; assay: as above; type: cell-based; conditions: cells used to culture HBV
Text: as §2

[7] = test system: HCVcc; assay: Anti hepatitis C activity assay: HCVcc infectivity in Huh7.5 cells, luciferase readout, single dose; type: cell-based, Hepatitis C virus
Procedure: (§3) Huh7.5 cells are grown in Dulbecco's modified essential media (DMEM), 10% fetal bovine serum (FBS), 1% penicillin-streptomycin (pen-strep), 1% Non-essential amino acids (NEAA) in a 5% CO2 incubator at 37° C. Huh7.5 cells were seeded at 1×10^4 cells per well into 96-well plates according to Southern Research Institute standard format. The test article was serially diluted with DMEM plus 5% FBS. The diluted compound in the amount of 50 μl was mixed with equal volume of cell culture-derived HCV (HCVcc), then applied to appropriate wells in the plate. Human interferon alpha-2b (rIFNα-2b) was included as a positive control compound. After 72 hr incubation at 37° C., the cells were lysed for measurement of luciferase activity using Renilla Luciferase Assay System (Promega) according to manufacturer's instruction. The number of cells in each well were determined by CytoTox-1 reagent (Promega). Test articles were tested with 6 serial dilution in triplicate to derive, if applicable, IC50 and IC90 (concentration inhibiting HCVcc infectivity by 50% and 90%, respectively), TC50 (concentration decreasing cell viability by 50%) and SI (selective index: TC50/IC50) values. In the replicon assay, Sub-confluent cultures of the ET line were plated out into 96-well plates that are dedicated for the analysis of cell numbers (cytotoxicity) or antiviral activity and the next day drugs were added to the appropriate wells. Cells were processed 72 hours later when the cells were still sub-confluent. After six half-log serial dilutions of the compound, the applicable EC50 (concentration inhibiting HCV replicon by 50%), EC90 (concentration inhibiting HCV replicon by 90%), IC50 (concentration decreasing cell viability by […]) and SI (selective index: […]) values were derived. HCV replicon levels are assessed as replicon derived Luc activity. The toxic concentration of drug that reduced cell numbers was assessed by the CytoTox-1 cell proliferation assay (Promega), a fluorometric assay of cell numbers (and cytotoxicity). […]

[8] = test system: hepatitis C virus; assay: Dose-response assay against hepatitis C virus (EC50); type: cell-based; conditions: for EC50: Hepatitis C virus, read-out: ES50 (EC50 against hepatitis C virus)
Procedure: as §3

SMILES | cytotoxicity at 72 h, 10 µM [1] | Toxicity against Huh7.5 cells (in words) [2] | Percentage virus inhibition ([3]; CBD at single dose 10 (title uM, row head pM)) | Activity against HBV in vitro / inhibition of viral replication (in words) ([3]; in vitro, single-dose assay) | CC50 at 72 h [4] | cytotoxicity at 6 days, 10 µM ([5]; CBD at 10 (title uM, row head pM)) | Cytotoxicity against HepG2 2.2.15 cells (in words) [6] | Percentage virus inhibition ([7]; HCVcc, CBD at single concentration 10 μM, Huh7.5 cells, 72 hr, 10 µM) | inhibition at 10 µM ([7]; Hepatitis C virus, Huh7.5, 72 h, HCVcc, CBD at single concentration 10 μM, Huh7.5 cells, 72 hr, read-out: Percentage virus inhibition) | Activity against HCV in vitro / inhibition of viral replication (in words) ([7]; in vitro, single-dose assay) | EC50 [8] | Inhibition of the HCV virus in the dose-response assay (in words) ([8]; dose-response assay (Table 2)) | Percentage virus inhibition ([3]; Lamivudine at 2 (row head pM)) | cytotoxicity at 6 days, 2 µM (printed pM) ([5]; Lamivudine at 2 (row head pM))
C=C(C)[C@@H]1CCC(C)=C[C@H]1c1c(O)cc(CCCCC)cc1O [CBD, Cannabidiol] | 2.7% | minimal toxicity | 0% | not against HBV; also recorded: not active | 15.7 ± 0.25 µM | 65.7% | significant cytotoxicity | 84.6% | 86.4% | active against HCV | 3.16 µM | dose-dependent inhibition | – | –
Nc1ccn([C@@H]2CS[C@H](CO)O2)c(=O)n1 [Lamivudine, reference compound] | – | – | – | – | – | – | – | – | – | – | – | – | 97.7% | 0%
CC(C)OC(=O)[C@H](C)N[P@](=O)(OC[C@H]1O[C@@H](n2ccc(=O)[nH]c2=O)[C@](C)(F)[C@@H]1O)Oc1ccccc1 [Sofosbuvir, reference compound] | – | – | – | – | > 10 µM | – | – | – | – | – | 0.055 ± 0.0104 µM | – | – | –
